Measurements published in patent US11364282B2, “Compositions, uses and methods for treatment of infertility and subfertility” (LO.LI. PHARMA S.R.L., priority 2017, dated 2022).

Key:
[1] = Pharmacokinetic evaluation in healthy subjects: myoinositol plus alpha lactalbumin (plasma myoinositol by GCMS); assay type: in vivo; conditions: both sexes, human, single oral dose in powder, 6 g myoinositol alone or plus 150 mg alpha lactalbumin, 15 healthy volunteers, mean
Excerpt: The present example describes a pharmacokinetic study combining the oral administration of myoinositol and alpha lactalbumin in healthy subjects. The study aims to determine whether the combination of myoinositol and alpha lactalbumin is able to increase the plasma level of myoinositol above that observed after administering myoinositol alone. The study involved 15 healthy volunteers, 6 men and 9 women. […] Subjects received orally 6 g of myoinositol in powder form and then, after a washout period of 7 days, 6 g of myoinositol and 150 mg alpha lactalbumin, also in powder form.

[2] = tested on: anovulatory PCOS patients; assay: Clinical evaluation on PCOS women: ovulation assessed by ultrasound examination; assay type: in vivo, human; conditions: two sachets per day
Excerpt: The present study aims to develop an efficacious therapy in women suffering from PCOS based on the improved absorption of inositol, e.g. myoinositol, when administered in combination with alpha lactalbumin. Specifically, while treatment of PCOS with myoinositol alone correlates to an improvement in the disease in a significant number of women, there remain women who still fail to respond to treatment with myoinositol alone. The present inventors thus sought to determine whether the higher level of myoinositol absorption observed when administering myoinositol together with alpha lactalbumin might allow successful treatment of PCOS patients who had previously not responded to treatment with myoinositol alone. If so, then the treatment of PCOS with inositol in combination with alpha lactalbumin, e.g. myoinositol in combination with alpha lactalbumin, would represent a significant therapeutic advance, allowing treatment of PCOS in previously recalcitrant cases, thereby substantially extending the therapeutic benefit of inositol, e.g. myoinositol, in treating PCOS.
The present study included 20 anovulatory PCOS patients.
Inclusion criteria were: age 20-35 years; PCOS according to Rotterdam ESHRE-ASRM consensus workshop group; anovulation and infertility >1 year. Indeed, according to Rotterdam criteria, PCOS was diagnosed performed if 2 out of the 3 following factors were fulfilled: a) oligo- or anovulation, b) clinical and/or biochemical signs of hyperandrogenism, and c) polycystic ovaries.
Patients were excluded in the event of other conditions causing ovulatory dysfunction, such as hyperprolactinemia or hypothyroidism, or androgen excess, such as adrenal hyperplasia or Cushing's syndrome, and also in the case of intake of other drugs that can potentially influence ovulation.
All the patients were given myoinositol (Inofolic®, Lo.Li. Pharma, Rome, Italy), containing 2 g myoinositol and 0.2 mg folic acid in dose of two sachets per day before meals, in order to induce ovulation.
Ovulation was assessed using ultrasound examination on days 12, 14 and 20 of the cycle. Treatment was performed for three months.
These 7 non-responders then became the subject of a second phase of the study, in which they received treatment with myoinositol in combination with alpha lactalbumin.
(§1) Specifically, myoinositol plasma levels were tested in these non-responding patients; a mean value of 17±3.5 μmol/l myoinositol was observed. Successively, a treatment with 2 g myoinositol, 0.2 mg folic acid and 50 mg alpha lactalbumin was performed in doses of two powder sachets per day before meals during the next three months. Of the 7 myoinositol resistant patients after combined treatment with myoinositol and alpha lactalbumin, 5 of the original non-responders (i.e. 71% of the original non-responders) ovulated. […]

[3] = clinical; conditions: female, human, in vivo
Method: as §1

[4] = tested on: women affected by idiopathic infertility; assay: Clinical evaluation on women affected by idiopathic infertility: biochemical pregnancy (beta hCG assay); assay type: in vivo, human; conditions: first phase: 40 women; 2 g myoinositol + 0.2 mg folic acid (Inofolic), two sachets per day, 3 months
Excerpt: The present study aims to develop an efficacious therapy in women suffering from idiopathic infertility based on the improved absorption of inositol, e.g. myoinositol, when administered in combination with alpha lactalbumin. Specifically, while treatment of idiopathic infertility with myoinositol alone correlates to an improvement in the disease in a significant number of women, there remain women who still fail to respond to treatment with myoinositol alone. The present inventors thus sought to determine whether the higher level of myoinositol absorption observed when administering myoinositol together with alpha lactalbumin might allow successful treatment of idiopathic infertility patients who had previously not responded to treatment with myoinositol alone. If so, then the treatment of idiopathic infertility with inositol in combination with alpha lactalbumin, e.g. myoinositol in combination with alpha lactalbumin, would represent a significant therapeutic advance, allowing treatment of idiopathic infertility in previously recalcitrant cases, thereby substantially extending the therapeutic benefit of inositol, e.g. myoinositol, in treating idiopathic infertility. The present study included 40 women affected by idiopathic infertility. Inclusion criteria were: women affected by idiopathic infertility as defined below, aged 30-40 years, who were not receiving any therapy with drugs which potentially influence ovulation. Patients were given a thorough evaluation and were tested for a number of diseases, as described in the following. Testing positive for any of these diseases tested sufficed to exclude a patient as being “idiopathically infertile”. Specifically, patients were excluded from this trial in the event they were diagnosed positive for any of: hyperprolactinemia, hypothyroidism, Cushing's syndrome, adrenal hyperplasia, obesity, polycystic ovary syndrome (PCOS) or anovulation. The person skilled in the art can routinely diagnose each of the above mentioned conditions. For example, hyperprolactinemia can be diagnosed when serum prolactin levels are found to be over 20 μg/L, as e.g. described in Serri et al., CMAJ, 2003, 169(6): 575-581. Hypothyroidism can be diagnosed when the serum TSH level is found to be over 4.5 mIU/L (Garber et al., CLINICAL PRACTICE GUIDELINES FOR HYPOTHYROIDISM IN ADULTS: COSPONSORED BY THE AMERICAN ASSOCIATION OF CLINICAL ENDOCRINOLOGISTS AND THE AMERICAN THYROID ASSOCIATION; Endocrine Practice vol. 18 No. 6, 2012). Cushing's syndrome can be diagnosed according to Nieman et al., J. Clin. Endocrinol. […] The primary readout was the achievement of biochemical pregnancy as assessed using an assay (HCG Combo Card, Shanghai Chemtron Biotech Co., Ltd., catalog.no. 6011C31-4) for beta human chorionic gonadotropin (beta hCG). […]

[5] = tested on: anovulatory PCOS women; conditions: 4 g/day myoinositol; cited from earlier work
[6] = first phase: 20 anovulatory PCOS patients, 2 g myoinositol + 0.2 mg folic acid (Inofolic), three months

- Cmax [1]: 98 µM
- Tmax [1]: 3 h
- concentration at 3 months [3]: 17 ± 3.5 µM
- myoinositol plasma level in patients who responded positively [3]: 38 µmol/L
- MYOINOSITOL PLASMA LEVELS T3 mean (±SD) ([3]; 3 months): 17 (3.5) μmol/l
SMILES: O[C@H]1[C@H](O)[C@@H](O)[C@H](O)[C@@H](O)[C@H]1O [myoinositol]
- OVULATION T3 (number of patients) ([2]; 7 PCOS patients non-responsive to myoinositol, after 3 months of the treatment, combination: 2 g myoinositol, 0.2 mg folic acid, 50 mg alpha lactalbumin): 0
- women resistant, did not ovulate (%) [2, 6]: 35%
- women resistant, did not ovulate (number of 20) [2, 6]: 7
- women who ovulated (%) [2, 6]: 65%
- women who ovulated (number of 20) [2, 6]: 13
- Achieving biochemical pregnancy % [4]: 52.5%
- Achieving biochemical pregnancy (number) [4]: 21
- Not achieving biochemical pregnancy % [4]: 47.5%
- Not achieving biochemical pregnancy (number) [4]: 19
- non-responders (patients who did not ovulate after treatment) [5]: 38.3%
